Measurements published in the NIST ThermoML archive (doi:10.1021/acs.jced.7b00690).
Numbers after ± are expanded uncertainties.

Assay: mn = molality of the nth substance listed, in mol/kg
Conditions: 100 kPa, Liquid, Vibrating tube method

O=C([O-])C(=O)[O-].[Na+].[Na+] [sodium oxalate] + O
Conditions	mass density [kg/m3]
298.15 K, m1 = 0.263	1025.1 ± 55
298.15 K, m1 = 0.265	1020.9 ± 12
298.15 K, m1 = 0.272	1020.9 ± 8
323.15 K, m1 = 0.317	1020.3 ± 8.9
323.15 K, m1 = 0.334	1022.4 ± 9
343.15 K, m1 = 0.385	1016.5 ± 9.5
